This assay in a line: Binding affinity was determined towards Opioid receptor delta 1 using [3H]naltrindole as radioligand.

The structures appear in SMILES notation. pKi: −log10 of the molar value. A value given as a limit tells only on which side of the number the result lay.

Broadly, the pKi is the negative decadic logarithm of the Ki, by convention in mol/L.

In turn, `C[C@H]1C2Cc3ccc(N(C)C=O)cc3[C@@]1(C)CCN2CC1CC1` [N-((6S,11R)-3-Cyclopropylmethyl-6,11-dimethyl-1,2,3,4,5,6-hexahydro-2,6-methano-benzo[d]azocin-8-yl)-N-methyl-formamide] gave a pKi of 5.21.
`CC1[C@H]2Cc3ccc(NC=O)cc3[C@]1(C)CCN2CC1CC1` (stereo partly drawn) [(1R,9R,13R)-10-(cyclopropylmethyl)-1,13-dimethyl-10-azatricyclo[7.3.1.0~2,7~]trideca-2,4,6-trien-4-ylformamide] had a pKi of 8.01.
The molecule `C[C@H]1C2Cc3ccc(NC(=O)c4ccccc4)cc3[C@@]1(C)CCN2CC1CC1` [N-((6S,11R)-3-Cyclopropylmethyl-6,11-dimethyl-1,2,3,4,5,6-hexahydro-2,6-methano-benzo[d]azocin-8-yl)-benzamide] gave a pKi of 5.62.
Molecule `O=CNc1ccc2c3c1O[C@H]1C(=O)CC[C@@]4(O)[C@@H](C2)N(CC2CC2)CC[C@]314` [N-[4-cyclopropylmethyl-17-hydroxy-14-oxo-(1S,5R,17S)-12-oxa-4-azapentacyclo[9.6.1.01,13.05,17.07,18]octadeca-7(18),8,10-trien-10-yl]methanamide] had a negative-log Ki (pKi) of 6.38.
Molecule `Nc1ccc2c3c1O[C@H]1C(=O)CC[C@@]4(O)[C@@H](C2)N(CC2CC2)CC[C@]314` [10-amino-4-cyclopropylmethyl-17-hydroxy-(1S,5R,13R,17S)-12-oxa-4-azapentacyclo[9.6.1.01,13.05,17.07,18]octadeca-7(18),8,10-trien-14-one] gave a negative-log Ki (pKi) of 6.06.
Molecule `C[C@H]1C2Cc3ccc(NC=O)cc3[C@@]1(C)CCN2CC1CC1` [N-((6S,11R)-3-Cyclopropylmethyl-6,11-dimethyl-1,2,3,4,5,6-hexahydro-2,6-methano-benzo[d]azocin-8-yl)-formamide] gave a pKi of 7.43.
`C[C@@H]1C2Cc3ccc(NC=O)cc3[C@]1(C)CCN2CC1CC1` [(1S,9S,13S)-10-(cyclopropylmethyl)-1,13-dimethyl-10-azatricyclo[7.3.1.0~2,7~]trideca-2,4,6-trien-4-ylformamide]: the pKi is below 5.00.
`CC(=O)Nc1ccc2c(c1)[C@@]1(C)CCN(CC3CC3)C(C2)[C@@H]1C` [N-((6S,11R)-3-Cyclopropylmethyl-6,11-dimethyl-1,2,3,4,5,6-hexahydro-2,6-methano-benzo[d]azocin-8-yl)-acetamide] showed a negative-log Ki (pKi) of 5.77.
Under `CC[C@@]12CCN(CC3CC3)C(C(=O)c3ccc(NC=O)cc31)[C@@H]2C` [N-((6S,11R)-3-Cyclopropylmethyl-6-ethyl-11-methyl-1-oxo-1,2,3,4,5,6-hexahydro-2,6-methano-benzo[d]azocin-8-yl)-formamide] stands 7.28.
